The source of these data is patent publication US20230295157A1, “3-(1H-IMIDAZOL-2-YL)-2,3,8,8A-TETRAHYDROINDOLIZIN-5(1H)-ONE DERIVATIVES USEFUL AS FACTOR XIA INHIBITORS” (JANSSEN PHARMACEUTICA NV, priority 2020, published 2023).

Read-outs that look alike come from different tables or passages of the source.

The target of one assay is Factor XIa (Homo sapiens (Human), UniProt P03951). Nature of the assay: Factor XIa inhibition assay (FLINT) utilizing a fluorophore-quencher pair peptide substrate. It counts as biochemical. Conditions: 30 min preincubation, kinetic reads over 30 min, read-out: FXIa Kin Inh IC50. A digest of the protocol: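 FXIa ([…]) preincubated 30 min with compound (11-point 3-fold dilution, top 100 nM, 2% DMSO), then 15 μM quenched FXI Arg146-based peptide added; Tris pH 7.5, CaCl2, BSA, CHAPS. Fluorescence 485/520 nm read kinetically every 5 min over 30 min at RT; IC50 by 4-parameter fit.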
Sequence of Factor XIa (P03951 388-625): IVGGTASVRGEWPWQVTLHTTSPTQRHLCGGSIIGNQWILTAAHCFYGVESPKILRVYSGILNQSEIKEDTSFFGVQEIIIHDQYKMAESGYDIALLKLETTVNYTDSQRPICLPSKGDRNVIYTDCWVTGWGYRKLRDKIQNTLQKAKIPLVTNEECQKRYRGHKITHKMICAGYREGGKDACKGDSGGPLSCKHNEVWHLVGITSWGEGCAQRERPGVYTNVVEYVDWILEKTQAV
Sequence of Factor XIa (P03951 19-387 partner): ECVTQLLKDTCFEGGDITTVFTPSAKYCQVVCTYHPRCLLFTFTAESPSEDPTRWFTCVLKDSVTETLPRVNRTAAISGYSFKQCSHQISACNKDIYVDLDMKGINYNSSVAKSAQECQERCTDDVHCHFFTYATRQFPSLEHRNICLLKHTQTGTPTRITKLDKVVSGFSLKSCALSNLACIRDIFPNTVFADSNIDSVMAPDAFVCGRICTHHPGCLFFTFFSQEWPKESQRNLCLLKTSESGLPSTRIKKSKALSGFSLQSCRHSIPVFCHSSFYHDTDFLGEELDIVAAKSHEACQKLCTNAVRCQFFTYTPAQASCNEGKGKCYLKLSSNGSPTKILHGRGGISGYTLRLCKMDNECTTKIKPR

A further assay has as its target human plasma kallikrein (Homo sapiens (Human), UniProt P03952). Kind of assay: Kallikrein inhibition assay (FLINT) utilizing a quenched AMC peptide substrate. It counts as biochemical. The following applies: 30 min preincubation, kinetic reads over 30 min, Z-Gly-Pro-Arg-AMC substrate 50 μM; read-out: Kallikrein Kin Inh IC50. The gist of the method: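 Fluorogenic Z-Gly-Pro-Arg-AMC cleavage (50 μM substrate, 2 nM kallikrein, Tris pH 7.5, CaCl2, BSA, CHAPS, 2% DMSO) read kinetically at 340/440 nm for 30 min after 30-min compound pre-incubation. Compounds in 11-point 3-fold series from 1 μM; percent inhibition fitted to four-parameter equation for IC50.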

Where [1] appears, read: 5Fam-KLTRAETV-K5Tamra substrate 15 μM.

Sequence of human plasma kallikrein (P03952 391-638): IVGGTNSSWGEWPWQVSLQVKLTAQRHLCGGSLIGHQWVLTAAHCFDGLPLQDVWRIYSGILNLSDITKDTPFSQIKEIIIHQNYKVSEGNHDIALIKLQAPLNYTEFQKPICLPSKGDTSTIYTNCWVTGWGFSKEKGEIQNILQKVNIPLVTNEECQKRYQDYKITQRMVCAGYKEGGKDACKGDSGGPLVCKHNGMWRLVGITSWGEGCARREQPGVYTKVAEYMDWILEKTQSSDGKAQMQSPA
Sequence of human plasma kallikrein (P03952 20-390 partner): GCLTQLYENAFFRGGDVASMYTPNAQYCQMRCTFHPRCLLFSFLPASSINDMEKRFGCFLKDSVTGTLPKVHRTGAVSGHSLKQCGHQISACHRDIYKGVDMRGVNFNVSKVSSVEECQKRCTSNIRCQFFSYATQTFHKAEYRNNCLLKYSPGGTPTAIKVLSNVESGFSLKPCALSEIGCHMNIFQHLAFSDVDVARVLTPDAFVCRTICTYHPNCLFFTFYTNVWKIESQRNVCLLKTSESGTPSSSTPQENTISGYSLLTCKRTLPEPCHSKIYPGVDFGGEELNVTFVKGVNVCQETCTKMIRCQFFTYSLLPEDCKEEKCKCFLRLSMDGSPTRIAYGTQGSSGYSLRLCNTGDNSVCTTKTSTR

Take `O=C1C=C(c2c(-n3cnnn3)ccc(Cl)c2F)C[C@H]2CC[C@@H](c3nc(F)c(-c4ccnc(CO)c4F)[nH]3)N12` [Example 107, (3S,8aR)-7-[3-chloro-2-fluoro-6-(tetrazol-1-yl)phenyl]-3-[4-fluoro-5-[3-fluoro-2-(hydroxymethyl)-4-pyridyl]-1H-imidazol-2-yl]-2,3,8,8a-tetrahydro-1H-indolizin-5-one]: the IC50 at Factor XIa (setting [1]) stood at 0.7 nM; on human plasma kallikrein, 6.5 nM.

For `[2H]c1nc([C@@H]2CC[C@@H]3CC(c4c(-n5cnnn5)ccc(Cl)c4F)=CC(=O)N32)[nH]c1-c1ccnc(C([2H])([2H])O)c1F` [Example 113, (3S,8aR)-7-[3-Chloro-2-fluoro-6-(tetrazol-1-yl)phenyl]-3-[4-deuterio-5-[2-[dideuterio(hydroxy)methyl]-3-fluoro-4-pyridyl]-1H-imidazol-2-yl]-2,3,8,8a-tetrahydro-1H-indolizin-5-one], the IC50 on Factor XIa (setting [1]) came out at 3.2 nM; on human plasma kallikrein, 27.3 nM.

Take `O=C1OCCN1c1nccc(-c2cnc([C@@H]3CC[C@@H]4CC(c5c(-n6cnnn6)ccc(Cl)c5F)=CC(=O)N43)[nH]2)c1F` [Example 114, 3-[4-[2-[(3S,8aR)-7-[3-chloro-2-fluoro-6-(tetrazol-1-yl)phenyl]-5-oxo-2,3,8,8a-tetrahydro-1H-indolizin-3-yl]-1H-imidazol-5-yl]-3-fluoro-2-pyridyl]oxazolidin-2-one]: the IC50 worked out at 9.4 nM at Factor XIa (setting [1]) and 55.9 nM on human plasma kallikrein.

As to `[2H]c1nc([C@@H]2CC[C@@H]3CC(c4c(-n5cnnn5)ccc(Cl)c4F)=CC(=O)N32)[nH]c1-c1ccnc(CO)c1F` [Example 117, (3S,8aR)-7-(3-chloro-2-fluoro-6-(1H-tetrazol-1-yl)phenyl)-3-(5-(3-fluoro-2-(hydroxymethyl)pyridin-4-yl)-1H-imidazol-2-yl-4-d)-2,3,8,8a-tetrahydroindolizin-5(1H)-one], the values for the half-inhibitory concentration (IC50) at Factor XIa (setting [1]) and at human plasma kallikrein were 2.9 nM and 24.8 nM, respectively.

Consider `Nc1ccc(-c2cnc([C@@H]3CC[C@@H]4CC(c5cc(Cl)ccc5-n5cnnn5)=CC(=O)N43)[nH]2)c(F)n1` [Example 123, (3S,8aR)-3-[5-(6-amino-2-fluoro-3-pyridyl)-1H-imidazol-2-yl]-7-[5-chloro-2-(tetrazol-1-yl)phenyl]-2,3,8,8a-tetrahydro-1H-indolizin-5-one], for which the IC50 on Factor XIa (setting [1]) was 0.4 nM; on human plasma kallikrein, 8.6 nM.

In the case of `[2H]c1cc(-c2cnc([C@@H]3CC[C@@H]4CC(c5cc(Cl)ccc5-n5cnnn5)=CC(=O)N43)[nH]2)c(F)nc1N` [Example 124, (3S,8aR)-3-[5-(6-amino-5-deuterio-2-fluoro-3-pyridyl)-1H-imidazol-2-yl]-7-[5-chloro-2-(tetrazol-1-yl)phenyl]-2,3,8,8a-tetrahydro-1H-indolizin-5-one], the 50% inhibitory concentration (IC50) at Factor XIa (setting [1]) came out at 0.4 nM; on human plasma kallikrein, 11.6 nM.

For the compound `[2H]c1cc(-c2c[nH]c([C@@H]3CC[C@@H]4CC(c5c(F)c(Cl)cc([2H])c5-n5cnnn5)=CC(=O)N43)n2)c(F)nc1N` [Example 125, (3S,8aR)-3-(4-(6-amino-2-fluoropyridin-3-yl-5-d)-1H-imidazol-2-yl)-7-(3-chloro-2-fluoro-6-(1H-tetrazol-1-yl)phenyl-5-d)-2,3,8,8a-tetrahydroindolizin-5(1H)-one], the half-inhibitory concentration (IC50) at Factor XIa (setting [1]) is 0.5 nM; at human plasma kallikrein it was 9.6 nM.

With `Nc1nccc(-c2cnc([C@@H]3CC[C@@H]4CC(c5c(-n6cnnn6)ccc(Cl)c5F)=CC(=O)N43)[nH]2)c1F` [Example 126, (3S,8aR)-3-[5-(2-amino-3-fluoro-4-pyridyl)-1H-imidazol-2-yl]-7-[3-chloro-2-fluoro-6-(tetrazol-1-yl)phenyl]-2,3,8,8a-tetrahydro-1H-indolizin-5-one], the half-maximal inhibitory concentration (IC50) at Factor XIa (setting [1]) came out at 0.5 nM; at human plasma kallikrein it was 4.6 nM.

As for `[2H]c1cc(Cl)c(F)c(C2=CC(=O)N3[C@H](CC[C@H]3c3nc([2H])c(-c4ccc(N)nc4F)[nH]3)C2)c1-n1cnnn1` [Example 129, (3S,8aR)-3-(5-(6-amino-2-fluoropyridin-3-yl)-1H-imidazol-2-yl-4-d)-7-(3-chloro-2-fluoro-6-(1H-tetrazol-1-yl)phenyl-5-d)-2,3,8,8a-tetrahydroindolizin-5(1H)-one], the IC50 at Factor XIa (5Fam-[…]-K5Tamra substrate 15 μM) worked out at 0.4 nM; on human plasma kallikrein, 5.4 nM.

Take `O=C1C=C(c2c(-n3cnnn3)ccc(Cl)c2F)C[C@H]2CC[C@@H](c3ncc(-c4ccnc(C5COC5)c4F)[nH]3)N12` [Example 130, (3S,8aR)-7-(3-chloro-2-fluoro-6-(1H-tetrazol-1-yl)phenyl)-3-(5-(3-fluoro-2-(oxetan-3-yl)pyridin-4-yl)-1H-imidazol-2-yl)-2,3,8,8a-tetrahydroindolizin-5(1H)-one]: the IC50 at Factor XIa (setting [1]) is 3.5 nM; at human plasma kallikrein it was 12.7 nM.

For `CNc1nccc(-c2cnc([C@@H]3CC[C@@H]4CC(c5c(-n6cnnn6)ccc(Cl)c5F)=CC(=O)N43)[nH]2)c1F` [Example 134, (3S,8aR)-7-(3-chloro-2-fluoro-6-(1H-tetrazol-1-yl)phenyl)-3-(5-(3-fluoro-2-(methylamino)pyridin-4-yl)-1H-imidazol-2-yl)-2,3,8,8a-tetrahydroindolizin-5(1H)-one], the IC50 stood at 0.4 nM on Factor XIa (setting [1]) and 1.1 nM at human plasma kallikrein.

For `[2H]c1cc(-c2[nH]c([C@@H]3CC[C@@H]4CC(c5c(-n6cnnn6)ccc(Cl)c5F)=CC(=O)N43)nc2[2H])c(F)nc1N` [Example 145, (3S,8aR)-3-[5-(6-amino-5-deuterio-2-fluoro-3-pyridyl)-4-deuterio-1H-imidazol-2-yl]-7-[3-chloro-2-fluoro-6-(tetrazol-1-yl)phenyl]-2,3,8,8a-tetrahydro-1H-indolizin-5-one], the figures for the IC50 on Factor XIa (setting [1]) and on human plasma kallikrein were 0.6 nM and 7.7 nM, respectively.

For the compound `[2H][C@]12CC[C@@H](c3ncc(-c4ccc(N)nc4F)[nH]3)N1C(=O)C=C(c1c(-n3cnnn3)ccc(Cl)c1F)C2` [Example 146, (3S,8aR)-3-[5-(6-amino-2-fluoro-3-pyridyl)-1H-imidazol-2-yl]-7-[3-chloro-2-fluoro-6-(tetrazol-1-yl)phenyl]-8a-deuterio-1,2,3,8-tetrahydroindolizin-5-one], the half-maximal inhibitory concentration (IC50) turned out to be 0.5 nM on Factor XIa (setting [1]) and 7.3 nM on human plasma kallikrein.

Consider `[2H]c1cc(-c2cnc([C@@H]3CC[C@@H]4CC(c5c(-n6cnnn6)ccc(Cl)c5F)=CC(=O)N43)[nH]2)c(F)nc1N` [Example 147, (3S,8aR)-3-[5-(6-amino-5-deuterio-2-fluoro-3-pyridyl)-1H-imidazol-2-yl]-7-[3-chloro-2-fluoro-6-(tetrazol-1-yl)phenyl]-2,3,8,8a-tetrahydro-1H-indolizin-5-one], for which the 50% inhibitory concentration (IC50) at Factor XIa (setting [1]) was 0.5 nM; on human plasma kallikrein it was 7.8 nM.

Turning to `[2H]c1cc(N)nc(F)c1-c1[nH]c([C@@H]2CC[C@@H]3CC(c4c(-n5cnnn5)ccc(Cl)c4F)=CC(=O)N32)nc1[2H]` [Example 148, (3S,8aR)-3-[5-(6-amino-4-deuterio-2-fluoro-3-pyridyl)-4-deuterio-1H-imidazol-2-yl]-7-[3-chloro-2-fluoro-6-(tetrazol-1-yl)phenyl]-2,3,8,8a-tetrahydro-1H-indolizin-5-one], the IC50 on Factor XIa (setting [1]) worked out at 0.6 nM; at human plasma kallikrein, 8.6 nM.

As for `[2H]c1nc([C@@H]2CC[C@@H]3CC(c4c(-n5cnnn5)ccc(Cl)c4F)=CC(=O)N32)[nH]c1-c1c(F)nc(N)c([2H])c1[2H]` [Example 149, (3S,8aR)-3-[5-(6-amino-4,5-dideuterio-2-fluoro-3-pyridyl)-4-deuterio-1H-imidazol-2-yl]-7-[3-chloro-2-fluoro-6-(tetrazol-1-yl)phenyl]-2,3,8,8a-tetrahydro-1H-indolizin-5-one], the IC50 at Factor XIa (setting [1]) was 0.5 nM; on human plasma kallikrein, 7.6 nM.

With `[2H]c1cc(N)nc(F)c1-c1cnc([C@@H]2CC[C@@H]3CC(c4c(-n5cnnn5)ccc(Cl)c4F)=CC(=O)N32)[nH]1` [Example 150, (3S,8aR)-3-[5-(6-amino-4-deuterio-2-fluoro-3-pyridyl)-1H-imidazol-2-yl]-7-[3-chloro-2-fluoro-6-(tetrazol-1-yl)phenyl]-2,3,8,8a-tetrahydro-1H-indolizin-5-one], the figures for the IC50 on Factor XIa (setting [1]) and at human plasma kallikrein were 0.6 nM and 8.6 nM, respectively.

On to `[2H]c1c(N)nc(F)c(-c2cnc([C@@H]3CC[C@@H]4CC(c5c(-n6cnnn6)ccc(Cl)c5F)=CC(=O)N43)[nH]2)c1[2H]` [Example 151, (3S,8aR)-3-[5-(6-amino-4,5-dideuterio-2-fluoro-3-pyridyl)-1H-imidazol-2-yl]-7-[3-chloro-2-fluoro-6-(tetrazol-1-yl)phenyl]-2,3,8,8a-tetrahydro-1H-indolizin-5-one], for which the 50% inhibitory concentration (IC50) came out at 0.6 nM on Factor XIa (setting [1]) and 8.9 nM on human plasma kallikrein.

Consider `[2H]c1cc(Cl)c(F)c(C2=CC(=O)N3[C@H](CC[C@H]3c3nc(-c4ccc(N)nc4F)c[nH]3)C2)c1-n1cnnn1` [Example 153, (3S,8aR)-3-[4-(6-amino-2-fluoro-3-pyridyl)-1H-imidazol-2-yl]-7-[3-chloro-5-deuterio-2-fluoro-6-(tetrazol-1-yl)phenyl]-2,3,8,8a-tetrahydro-1H-indolizin-5-one], for which the IC50 was 0.5 nM on Factor XIa (setting [1]) and 8.1 nM at human plasma kallikrein.

In the case of `COCCNc1nccc(-c2cnc([C@@H]3CCC4CC(c5c(-n6cnnn6)ccc(Cl)c5F)=CC(=O)N43)[nH]2)c1F` (stereo partly drawn) [Example 161, (3S)-7-(3-chloro-2-fluoro-6-(1H-tetrazol-1-yl)phenyl)-3-(5-(3-fluoro-2-((2-methoxyethyl)amino)pyridin-4-yl)-1H-imidazol-2-yl)-2,3,8,8a-tetrahydroindolizin-5(1H)-one], the results for the concentration for half-maximal inhibition (IC50) on Factor XIa (setting [1]) and at human plasma kallikrein were 0.5 nM and 1.9 nM, respectively.

For orientation: IC50 means the concentration that inhibits the measured activity by half.
